Experimental data from PubChem BioAssay (NCI).
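Cells were grown in 96-well plates and exposed to each compound for 48 hours at five concentrations; endpoints were interpolated linearly between bracketing concentrations, or set to the highest concentration if not reached. Definition used: TGI = concentration required for complete inhibition of growth.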

Key:
Test in all cases: NCI anticancer screen, dose series, 48 h
UACC-257 melanoma = test system: UACC-257 melanoma
NCI-H23 lung = test system: NCI-H23 lung
HOP-62 NSCLC = test system: HOP-62 NSCLC
T-47D breast = test system: T-47D breast
SW-620 colon = test system: SW-620 colon
MDA-MB-231 breast = test system: MDA-MB-231 breast
CCRF-CEM leukemia = test system: CCRF-CEM leukemia
HCC-2998 colon = test system: HCC-2998 colon
SF-539 CNS = test system: SF-539 CNS
SF-295 CNS = test system: SF-295 CNS
MDA-MB-435 = test system: MDA-MB-435
UO-31 renal = test system: UO-31 renal
NCI/ADR-RES ovarian = test system: NCI/ADR-RES ovarian
U251 CNS = test system: U251 CNS
HCT-116 colon = test system: HCT-116 colon
SNB-19 CNS = test system: SNB-19 CNS
EKVX NSCLC = test system: EKVX NSCLC
OVCAR-3 ovarian = test system: OVCAR-3 ovarian
DU-145 prostate = test system: DU-145 prostate
MCF7 breast = test system: MCF7 breast
IGROV1 ovarian = test system: IGROV1 ovarian
M14 melanoma = test system: M14 melanoma
KM12 colon = test system: KM12 colon
SF-268 CNS = test system: SF-268 CNS
K-562 leukemia = test system: K-562 leukemia
BT-549 breast = test system: BT-549 breast
HT29 colon = test system: HT29 colon
UACC-62 melanoma = test system: UACC-62 melanoma
MDA-N = test system: MDA-N
HL-60(TB) leukemia = test system: HL-60(TB) leukemia
PC-3 prostate = test system: PC-3 prostate
ACHN renal = test system: ACHN renal
RPMI-8226 leukemia = test system: RPMI-8226 leukemia
OVCAR-5 ovarian = test system: OVCAR-5 ovarian
TK-10 renal = test system: TK-10 renal
SK-OV-3 ovarian = test system: SK-OV-3 ovarian
OVCAR-8 ovarian = test system: OVCAR-8 ovarian
MOLT-4 leukemia = test system: MOLT-4 leukemia
OVCAR-4 ovarian = test system: OVCAR-4 ovarian
786-0 renal = test system: 786-0 renal
MALME-3M melanoma = test system: MALME-3M melanoma
SK-MEL-28 melanoma = test system: SK-MEL-28 melanoma
A498 renal = test system: A498 renal
LOX IMVI melanoma = test system: LOX IMVI melanoma
SR leukemia = test system: SR leukemia
HS 578T breast = test system: HS 578T breast
RXF 393 renal = test system: RXF 393 renal
COLO 205 colon = test system: COLO 205 colon
HCT-15 colon = test system: HCT-15 colon
NCI-H226 lung = test system: NCI-H226 lung
SN12C renal = test system: SN12C renal
NCI-H460 lung = test system: NCI-H460 lung
SK-MEL-5 melanoma = test system: SK-MEL-5 melanoma
SK-MEL-2 melanoma = test system: SK-MEL-2 melanoma
A549 NSCLC = test system: A549 NSCLC
CAKI-1 renal = test system: CAKI-1 renal
SNB-75 CNS = test system: SNB-75 CNS
NCI-H522 lung = test system: NCI-H522 lung

Which TGI (UACC-257 melanoma) does the source give for C=CCCC1CCCCNC1=S (configuration not stated) here?
The TGI was over 10 µM.

What about the TGI (NCI-H23 lung) of the same molecule?
The TGI was over 10 µM.

And the TGI (HOP-62 NSCLC)?
Its TGI is over 10 µM.

And the TGI (T-47D breast)?
The TGI was over 10 µM.

And the TGI (SW-620 colon)?
Its TGI is over 10 µM.

What about the TGI (MDA-MB-231 breast) of the same molecule?
The TGI was over 10 µM.

What about the TGI (CCRF-CEM leukemia) of the same molecule?
The TGI was over 10 µM.

And the TGI (HCC-2998 colon)?
Its TGI is over 10 µM.

And the TGI (SF-539 CNS)?
Its TGI is over 10 µM.

What about the TGI (SF-295 CNS) of the same molecule?
Its TGI is over 10 µM.

What about the TGI (MDA-MB-435) of the same molecule?
Its TGI is over 10 µM.

What about the TGI (UO-31 renal) of the same molecule?
Its TGI is over 10 µM.

What about the TGI (NCI/ADR-RES ovarian) of the same molecule?
Its TGI is over 10 µM.

What about the TGI (U251 CNS) of the same molecule?
Its TGI is over 10 µM.

And the TGI (HCT-116 colon)?
The TGI was over 10 µM.

What about the TGI (SNB-19 CNS) of the same molecule?
Its TGI is over 10 µM.

And the TGI (EKVX NSCLC)?
Its TGI is over 10 µM.

And the TGI (OVCAR-3 ovarian)?
Its TGI is over 10 µM.

And the TGI (DU-145 prostate)?
Its TGI is over 10 µM.

And the TGI (MCF7 breast)?
Its TGI is over 10 µM.

And the TGI (IGROV1 ovarian)?
The TGI was over 10 µM.

And the TGI (M14 melanoma)?
The TGI was over 10 µM.

What about the TGI (KM12 colon) of the same molecule?
The TGI was over 10 µM.

And the TGI (SF-268 CNS)?
Its TGI is over 10 µM.

What about the TGI (K-562 leukemia) of the same molecule?
Its TGI is over 10 µM.

What about the TGI (BT-549 breast) of the same molecule?
The TGI was over 10 µM.

What about the TGI (HT29 colon) of the same molecule?
Its TGI is over 10 µM.

What about the TGI (UACC-62 melanoma) of the same molecule?
The TGI was over 10 µM.

And the TGI (MDA-N)?
Its TGI is over 10 µM.

What about the TGI (HL-60(TB) leukemia) of the same molecule?
The TGI was over 10 µM.

What about the TGI (PC-3 prostate) of the same molecule?
The TGI was over 10 µM.

And the TGI (ACHN renal)?
The TGI was over 10 µM.

And the TGI (RPMI-8226 leukemia)?
Its TGI is over 10 µM.

What about the TGI (OVCAR-5 ovarian) of the same molecule?
The TGI was over 10 µM.

What about the TGI (TK-10 renal) of the same molecule?
The TGI was over 10 µM.

And the TGI (SK-OV-3 ovarian)?
The TGI was over 10 µM.

And the TGI (OVCAR-8 ovarian)?
The TGI was over 10 µM.

What about the TGI (MOLT-4 leukemia) of the same molecule?
Its TGI is over 10 µM.

What about the TGI (OVCAR-4 ovarian) of the same molecule?
Its TGI is over 10 µM.

And the TGI (786-0 renal)?
Its TGI is over 10 µM.

And the TGI (MALME-3M melanoma)?
Its TGI is over 10 µM.

And the TGI (SK-MEL-28 melanoma)?
The TGI was over 10 µM.

What about the TGI (A498 renal) of the same molecule?
Its TGI is over 10 µM.

What about the TGI (LOX IMVI melanoma) of the same molecule?
The TGI was over 10 µM.

What about the TGI (SR leukemia) of the same molecule?
The TGI was over 10 µM.

What about the TGI (HS 578T breast) of the same molecule?
The TGI was over 10 µM.

What about the TGI (RXF 393 renal) of the same molecule?
The TGI was over 10 µM.

And the TGI (COLO 205 colon)?
The TGI was over 10 µM.

And the TGI (HCT-15 colon)?
Its TGI is over 10 µM.

What about the TGI (NCI-H226 lung) of the same molecule?
The TGI was over 10 µM.

What about the TGI (SN12C renal) of the same molecule?
Its TGI is over 10 µM.

What about the TGI (NCI-H460 lung) of the same molecule?
The TGI was over 10 µM.

And the TGI (SK-MEL-5 melanoma)?
Its TGI is over 10 µM.

And the TGI (SK-MEL-2 melanoma)?
The TGI was over 10 µM.

And the TGI (A549 NSCLC)?
The TGI was over 10 µM.

What about the TGI (CAKI-1 renal) of the same molecule?
Its TGI is over 10 µM.

O=C(O)C1(Cc2ccccc2)Cc2ccccc2C1 was tested. Which TGI (UACC-257 melanoma) did it give?
Its TGI is over 100 µM.

What about the TGI (NCI-H23 lung) of the same molecule?
The TGI was over 100 µM.

And the TGI (HOP-62 NSCLC)?
Its TGI is over 100 µM.

And the TGI (T-47D breast)?
Its TGI is over 100 µM.

And the TGI (SNB-75 CNS)?
The TGI was over 100 µM.

And the TGI (SW-620 colon)?
The TGI was over 100 µM.

And the TGI (MDA-MB-231 breast)?
Its TGI is over 100 µM.

What about the TGI (CCRF-CEM leukemia) of the same molecule?
The TGI was over 100 µM.

What about the TGI (HCC-2998 colon) of the same molecule?
The TGI was over 100 µM.

And the TGI (SF-539 CNS)?
The TGI was over 100 µM.

And the TGI (SF-295 CNS)?
The TGI was over 100 µM.

And the TGI (MDA-MB-435)?
Its TGI is over 100 µM.

What about the TGI (UO-31 renal) of the same molecule?
The TGI was over 100 µM.

And the TGI (NCI/ADR-RES ovarian)?
The TGI was over 100 µM.

And the TGI (U251 CNS)?
The TGI was over 100 µM.

And the TGI (HCT-116 colon)?
The TGI was over 100 µM.

What about the TGI (SNB-19 CNS) of the same molecule?
Its TGI is over 100 µM.

And the TGI (EKVX NSCLC)?
The TGI was over 100 µM.

What about the TGI (OVCAR-3 ovarian) of the same molecule?
Its TGI is over 100 µM.

And the TGI (DU-145 prostate)?
Its TGI is over 100 µM.

What about the TGI (MCF7 breast) of the same molecule?
Its TGI is over 100 µM.

What about the TGI (NCI-H522 lung) of the same molecule?
Its TGI is over 100 µM.

And the TGI (IGROV1 ovarian)?
The TGI was over 100 µM.

And the TGI (M14 melanoma)?
The TGI was over 100 µM.

What about the TGI (KM12 colon) of the same molecule?
Its TGI is over 100 µM.

What about the TGI (SF-268 CNS) of the same molecule?
Its TGI is over 100 µM.

What about the TGI (K-562 leukemia) of the same molecule?
Its TGI is over 100 µM.

What about the TGI (BT-549 breast) of the same molecule?
The TGI was over 100 µM.

And the TGI (HT29 colon)?
The TGI was over 100 µM.

And the TGI (UACC-62 melanoma)?
The TGI was over 100 µM.

And the TGI (MDA-N)?
The TGI was over 100 µM.

What about the TGI (HL-60(TB) leukemia) of the same molecule?
The TGI was over 100 µM.

What about the TGI (PC-3 prostate) of the same molecule?
The TGI was over 100 µM.

And the TGI (ACHN renal)?
Its TGI is over 100 µM.

What about the TGI (RPMI-8226 leukemia) of the same molecule?
The TGI was over 100 µM.

And the TGI (OVCAR-5 ovarian)?
Its TGI is over 100 µM.

And the TGI (TK-10 renal)?
The TGI was over 100 µM.

What about the TGI (SK-OV-3 ovarian) of the same molecule?
Its TGI is over 100 µM.

What about the TGI (OVCAR-8 ovarian) of the same molecule?
The TGI was over 100 µM.

What about the TGI (MOLT-4 leukemia) of the same molecule?
The TGI was over 100 µM.

And the TGI (OVCAR-4 ovarian)?
Its TGI is over 100 µM.

What about the TGI (MALME-3M melanoma) of the same molecule?
The TGI was over 100 µM.

What about the TGI (SK-MEL-28 melanoma) of the same molecule?
The TGI was over 100 µM.

What about the TGI (A498 renal) of the same molecule?
The TGI was over 100 µM.

And the TGI (LOX IMVI melanoma)?
Its TGI is over 100 µM.

What about the TGI (SR leukemia) of the same molecule?
The TGI was over 100 µM.

And the TGI (HS 578T breast)?
The TGI was over 100 µM.

And the TGI (RXF 393 renal)?
The TGI was over 100 µM.

What about the TGI (COLO 205 colon) of the same molecule?
The TGI was over 100 µM.

And the TGI (HCT-15 colon)?
Its TGI is over 100 µM.

What about the TGI (NCI-H226 lung) of the same molecule?
Its TGI is over 100 µM.

And the TGI (SN12C renal)?
The TGI was over 100 µM.

What about the TGI (NCI-H460 lung) of the same molecule?
The TGI was over 100 µM.

What about the TGI (SK-MEL-5 melanoma) of the same molecule?
The TGI was over 100 µM.

What about the TGI (SK-MEL-2 melanoma) of the same molecule?
Its TGI is over 100 µM.

And the TGI (A549 NSCLC)?
Its TGI is over 100 µM.
